Reference: patent US5770617A, “Terbenzimidazoles useful as antifungal agents” (Rutgers, The State University of New Jersey, priority 1997, dated 1998)

Columns and labels:
[1] = tested on: KBV-1 cells (multidrug-resistant variant, overexpress MDR1); experiment: MTT cytotoxicity assay, KBV-1; assay type: cell-based, human
Protocol: (§1) The cytotoxicity was determined using the as MTT-microtiter plate tetrazolinium cytotoxicity assay (MTA) following the procedures of F. Denizot et al., J. Immunol. Methods, 89, 271 (1986); J. Carmichael et al., Cancer Res, 47, 936 (1987) and T. J. Mosmann et al., Immunol. Methods, 65, 55 (1983). The human lymphoblast RPMI 8402 and its camptothecin-resistant variant cell line, CPT-K5 were provided by Dr. Toshiwo Andoh (Aichi Cancer Center Research Institute, Nagoya, Japan). See, for example, T. Andoh et al., Adv. Pharmacol., 29B, 93 (1994). The cytotoxicity assay was performed using 96-well microtiter plates. Cells were grown in suspension at 37 ° C. in 5% CO2 and maintained by regular passage in RPMI medium supplemented with 10% heat inactivated fetal bovine serum, L-glutamine (2 mM), penicillin (100 U/ml), and streptomycin (0.1 mg/ml). For determination of IC50, cells were exposed continuously with varying concentrations of drug concentrations and MTT assays were performed at the end of the fourth day.
(§2) The drug sensitive human epidermoid carcinoma KB3-1 cell line (S. Aliyama et al., Somatic Cell Mol. Genet., 11, 117 (1985)) and its vinblastine-selected multidrug-resistant variant KBV-1 cells (D. W. Shen et al., Science, 32, 643 (1986)) were provided by Dr. Michael Gottesmann (National Cancer Institute, Bethesda, Md.). […]

[2] = tested on: human epidermoid carcinoma KB3-1 cell line; experiment: MTT cytotoxicity assay, KB3-1; assay type: cell-based; details: KB 3-1, 96 h, read-out: Cytotoxicity IC50 KB3-1
Protocol: as §1, §2

[3] = tested on: yeast cells expressing yeast topoisomerase I; experiment: Yeast cytotoxicity assay, yeast topoisomerase I; assay type: cell-based, S. cerevisiae
From the text: The topoisomerase I-specific in vivo cytotoxicity assay was adapted from A. M. Knab et al., J. Biol. Chem., 268, 22322 (1993). In this system, various topoisomerase I genes or cDNAs cloned into the single-copy yeast plasmid vector (YCpGAL1; Knab et al., cited above) are expressed under the control of the GAL1 promoter in the JN2-134 strain of S. cerevisiae (MAT, rad52::Leu2, trp1, ade2-1, his7, ura3-52, ise1, top1-1, and leu2; M. A. Bjornsti et al., Cancer Res., 49, 6318 (1989)). The topoisomerase I gene or cDNA constructs in the vector are, respectively, the wild-type yeast topoisomerase I gene (YCpGAL-ScTOP1; need cite (1989)), a nonfunctional topoisomerase I gene where the active site tyrosine-727 is mutated to phenylalanine (YCPGAL1-Sctop1Y727; A. M. Knab et al., J. Biol. Chem., 268, 22322 (1993)), and the wild-type human topoisomerase I cDNA (YCp-GAL-hTOP1; M. A. Bjornsti et al., Cancer Res., 49, 6318 (1989)).
To qualitatively test the cytotoxicity and the topoisomerase I specificity of the drugs, yeast cells containing the specified plasmid were grown in dropout medium supplemented with uracil, 2% galactose, and the drug being tested.

[4] = tested on: CPT-K5 (camptothecin-resistant variant of RPMI 8402); details: CPT-K5 versus RPMI 8402; reported by A. Y. Chen et al. 1993; cited from earlier work

Row | Compound | difference between IC50 values in KB 3-1 and KB V-1 cells [1] | IC50 [2] [nM] | cytotoxicity to yeast cells expressing functional yeast topoisomerase I [3] | resistance of yeast cells expressing yeast topoisomerase I relative to yeast cells expressing human topoisomerase I [3] | relative resistance (ratio of IC50 of resistant versus drug sensitive cell line) [4]
1 | c1ccc(-c2ccc3[nH]c(-c4ccc5[nH]c(-c6ccc7[nH]cnc7c6)nc5c4)nc3c2)cc1 [Compound 13, 5-Phenyl-2-[2'(benzimidazol-5"-yl)benzimidazol-5'-yl]benzimidazole] | little difference | 580 | – | – | –
2 | CC[C@@]1(O)C(=O)OCc2c1cc1n(c2=O)Cc2cc3ccccc3nc2-1 [camptothecin] | – | – | camptothecin-sensitive | at least ten times more resistant | 2,500 fold
